Test results from patent publication US20040235882A1, “Amino-substituted imidazopyridines for the treatment of gastrointestial diseases” (priority 2001, published 2004).

Test system: pentagastrin-stimulated acid secretion of the perfused rat stomach
Experiment: Secretion-inhibiting action on the perfused rat stomach (pentagastrin-stimulated acid secretion, in vivo)
Conditions: anesthetized female CD rat, pentagastrin 1 μg/kg i.v. infusion, dose 3 μmol/kg i.d. (intraduodenal)
Text: Testing of the secretion-inhibiting action on the perfused rat stomach
In Table A which follows, the influence of the compounds according to the invention on the pentagastrin-stimulated acid secretion of the perfused rat stomach after intraduodenal administration in vivo is shown.
The abdomen of anesthetized rats (CD rat, female, 200-250 g; 1.5 g/kg i.m. urethane) was opened after tracheotomy by a median upper abdominal incision and a PVC catheter was fixed transorally in the esophagus and another via the pylorus such that the ends of the tube just projected into the gastric lumen. The catheter leading from the pylorus led outward into the right abdominal wall through a side opening.
After thorough rinsing (about 50-100 ml), warm (37° C.) physiological NaCl solution was continuously passed through the stomach (0.5 ml/min, pH 6.8-6.9; Braun-Unita I). The pH (pH meter 632, glass electrode EA 147; φ=5 mm, Metrohm) and, by titration with a freshly prepared 0.01 N NaOH solution to pH 7 (Dosimat 665 Metrohm), the secreted HCl were determined in the effluent in each case collected at an interval of 15 minutes.
The gastric secretion was stimulated by continuous infusion of […] (=1.65 ml/h) of i.v. pentagastrin (left femoral vein) about 30 min after the end of the operation (i.e. after determination of 2 preliminary fractions). […]

| Compound | Inhibition of acid secretion [%] |
| --- | --- |
| Cc1nc2c3c(ccn2c1C)[C@@H](N1CCOCC1)[C@@H](O)CN3 [Example 9, (7R,8S,9R)-8-Hydroxy-2,3-dimethyl-7-(4-morphollno)-7,8,9,10-tetrahydroimidazo[1.2-h]-[1.7]naphthyridine] | 44 |
| Cc1nc2c3c(ccn2c1C)[C@@H](N(C)C)[C@@H](O)CN3 [Example 19, (7R,8S,9R)-8-Hydroxy-7-(dimethylamino)-2,3-dimethyl-7,8,9,10-tetrahydroimidazo[1.2-h]-[1.7]naphthyridine] | 64 |
